Patent EP0059983B1, “Substituted biphenyl compounds for use as a medicament” (THE WELLCOME FOUNDATION LIMITED, priority 1981, dated 1982)

Columns and labels:
[1] = test system: hypercholesterolemic male rat; test: Inhibition of dietary induced hypercholesterolemia in male rats (serum lipids); format: in vivo; parameters: key to Cholesterol lowering / Triglyceride lowering: In = Inactive at dose tested; A = Activity> clofibrate; M = Activity≤ clofibrate; settings: for Cholesterol lowering / Triglyceride lowering: rats, efficacy compared to clofibrate, dose not given; for % change in serum from control HDL: HDL cholesterol; for % change in serum from control HDL / % change in serum from control VLDL & LDL / % change in serum from control Cholesterol / % change in serum from control Triglyceride: male rats, oral; for % change in serum from control VLDL & LDL: VLDL & LDL cholesterol (difference between total and HDL cholesterol); for % change in serum from control Cholesterol / % change in serum from control Triglyceride: twice daily 3 days and once on day 4
Protocol: Hypercholesterolemia was produced in male rats after 3 days in a diet of 0.4% cholesterol and 0.2% sodium cholate. Each group contained 4 rats. Compounds tested were given orally twice daily for 3 days and once on day 4. Control animals received the vehicle, methyl cellulose. The cholesterol-containing diet and compound treatment were started at the same time. Animals were bled before dietary and compound treatment and 3 hr after the last dose of compound on day 4. All bleedings were after a 4 hr fast. Total serum cholesterol, triglyceride and high density lipoprotein (HDL) cholesterol determined by the procedure and test kit supplied by Dow Diagnostics (Trademark of the Dow Chemical Co. Laboratories, Indianapolis, IN). Very low and low density lipoprotein (VLDL & LDL) cholesterol were determined by the difference between total and HDL cholesterol.
By the method of Example 5 various compounds of formula (IA) were assessed for their ability to reduce cholesterol and triglyceride levels in rats. The compounds were compared in efficacy to clofibrate.

rats = test: Oral toxicity in rats; format: in vivo; settings: oral administration to rats at upto 1 g/kg bodyweight

`O=C(O)c1ccccc1-c1ccc(F)cc1` [F, 2-(4-Fluorophenyl)-benzoic acid] was tested, and the Cholesterol lowering [1] was “In” and the Triglyceride lowering [1] was “M”.

In the case of `O=C(O)c1ccccc1-c1ccc(C(F)(F)F)cc1` [IA(R=CF3), 2-(4-trifluoromethylphenyl)benzoic acid], the “% change in serum from control HDL” value ([1]; dose 25 mg/kg/day) is reported as −6%, the “% change in serum from control HDL” value ([1]; dose 50 mg/kg/day) is reported as “+10%” and the “% change in serum from control HDL” value ([1]; dose 150 mg/kg/day) is reported as −15%. For the same compound, the “% change in serum from control VLDL & LDL” value ([1]; dose 25 mg/kg/day) was −46%, the “% change in serum from control VLDL & LDL” value ([1]; dose 50 mg/kg/day) was −64% and the “% change in serum from control VLDL & LDL” value ([1]; dose 150 mg/kg/day) was −52%. The “% change in serum from control Cholesterol” value ([1]; dose 25 mg/kg/day) was −40%, the “% change in serum from control Triglyceride” value ([1]; dose 25 mg/kg/day) was −43% and the “% change in serum from control Cholesterol” value ([1]; dose 50 mg/kg/day) was −56%. The “% change in serum from control Triglyceride” value ([1]; dose 50 mg/kg/day) was −53%, the “% change in serum from control Cholesterol” value ([1]; dose 100 mg/kg/day) was −51% and the “% change in serum from control Triglyceride” value ([1]; dose 100 mg/kg/day) was −57%. For the same compound, the “% change in serum from control Cholesterol” value ([1]; dose 150 mg/kg/day) was −40%, the “% change in serum from control Triglyceride” value ([1]; dose 150 mg/kg/day) was −60% and the Cholesterol lowering [1] was “A”. For the same compound, the Triglyceride lowering [1] was “A” and the deaths (rats) was “no deaths were observed”.

`Cc1ccc(-c2ccccc2C(=O)O)cc1` [CH3, 2-(4-Methylphenyl)-benzoic acid] was tested, and the Cholesterol lowering [1] was “M” and the Triglyceride lowering [1] was “M”.

In the case of `CC(C)c1ccc(-c2ccccc2C(=O)O)cc1` [I C3H7, 2-(4-isoPropylphenyl)-benzoic acid], the Cholesterol lowering [1] is reported as “A” and the Triglyceride lowering [1] is reported as “A”.

With `CCc1ccc(-c2ccccc2C(=O)O)cc1` [Example C2H5, 2-(4-Ethylphenyl)-benzoic acid] the Cholesterol lowering [1] was “A” and the Triglyceride lowering [1] was “A”.

`O=C(O)c1ccccc1-c1ccc(Cl)cc1` [Cl, 2-(4-Chlorophenyl)-benzoic acid] was tested, and the Cholesterol lowering [1] was “M” and the Triglyceride lowering [1] was “In”.

For `CCOC(=O)C(C)(C)Oc1ccc(Cl)cc1` [Clofibrate, reference compound], the “% change in serum from control HDL” value ([1]; dose 100 mg/kg/day) was −21%, the “% change in serum from control HDL” value ([1]; dose 200 mg/kg/day) was −28% and the “% change in serum from control VLDL & LDL” value ([1]; dose 100 mg/kg/day) was 0%. The “% change in serum from control VLDL & LDL” value ([1]; dose 200 mg/kg/day) was −29%, the “% change in serum from control Cholesterol” value ([1]; dose 25 mg/kg/day) was 0% and the “% change in serum from control Triglyceride” value ([1]; dose 25 mg/kg/day) was 0%. The “% change in serum from control Cholesterol” value ([1]; dose 50 mg/kg/day) was 0%, the “% change in serum from control Triglyceride” value ([1]; dose 50 mg/kg/day) was −31% and the “% change in serum from control Cholesterol” value ([1]; dose 100 mg/kg/day) was 0%. The “% change in serum from control Triglyceride” value ([1]; dose 100 mg/kg/day) was −33%, the “% change in serum from control Cholesterol” value ([1]; dose 200 mg/kg/day) was −28% and the “% change in serum from control Triglyceride” value ([1]; dose 200 mg/kg/day) was −40%.

`CCCCc1ccc(-c2ccccc2C(=O)O)cc1` [n C4H9, 2-(4-n-butylphenyl)benzoic acid] was tested, and the Cholesterol lowering [1] was “A” and the Triglyceride lowering [1] was “A”.

In the case of `COc1ccc(-c2ccccc2C(=O)O)cc1` [OCH3, 2-(4-Methoxyphenyl)-benzoic acid], the Cholesterol lowering [1] is reported as “M” and the Triglyceride lowering [1] is reported as “A”.

For `CC(C)(C)c1ccc(-c2ccccc2C(=O)O)cc1` [t C4H9, 2-(4-t-Butylphenyl)-benzoic acid], the Cholesterol lowering [1] was “M” and the Triglyceride lowering [1] was “A”.
